Reference: patent US10716797B2, “Steroid alkaloids and compositions and kits thereof” (priority 2013, dated 2020)
Read-outs that look alike come from different tables or passages of the source.

How the values were obtained:
[1] = system: S. aureus SCV strain NewbouldΔhemB; test: MIC by microdilution against SCV strain; type: cell-based, Staphylococcus aureus; details: for Activity of the compounds against the SCV strain (class) / MIC vs SCV: compound tested alone, strain NewbouldΔhemB
Experimental: Method. The minimal inhibitory concentrations (MICs), (i.e. lowest concentration of an antimicrobial that will inhibit the visible growth of a microorganism after incubation), of test compounds were determined against the normal or SCV strains of bacterial species from the Firmicutes phylum. Briefly, MICs were determined using the microdilution method in 96-well plates (Clinical and Laboratory Standards Institute (CLSI), 2011). Bacteria were inoculated at ˜10^5-10^6 CFU/mL and incubated at 35° C. for 20 h (normal strains) or 48 h (SCVs) in brain heart infusion (BHI) broth in order to allow SCVs to reach maximal growth as previously described (Mitchell et al., 2012). Then OD595 nm was read on a microplate reader. […] In this example the range of compound concentrations tested was 0.03 to 64 μg/ml using doubling increments. Strain Staphylococcus aureus NewbouldΔhemB (hemB) was also used in the experiments and is a laboratory-derived stable SCV created by the insertion of the macrolide resistance gene ermA in the hemB gene of this strain to create the SCV phenotype (defective electron transport chain and respiratory deficiency) through inactivation of hemin biosynthesis (Brouillette et al., 2004). […]

[2] = system: Staphylococcus aureus ATCC 29213; test: MIC by microdilution, compound alone or in combination with an aminoglycoside; type: cell-based; details: for potentiation / synergy with aminoglycoside (gentamicin) in words: S. aureus ATCC 29213; for MIC: Staphylococcus aureus, ATCC29213, 20 h; for Combination MIC vs ATCC29213 (MIC of gentamicin in combination with the compound): MIC of gentamicin alone 0.5 μg/mL; for MIC of aminoglycoside against S. aureus ATCC 29213 in combination with Compound 14: Compound 14 used at 4 μg/mL; for Potentiation fold with Compound 14: MIC aminoglycoside alone / MIC with Compound 14 at 4 μg/mL; for MIC vs ATCC29213: hydrochloride
Experimental: (§1) Method. The minimal inhibitory concentrations (MICs), (i.e. lowest concentration of an antimicrobial that will inhibit the visible growth of a microorganism after incubation), of test compounds were determined against the normal or SCV strains of bacterial species from the Firmicutes phylum. Briefly, MICs were determined using the microdilution method in 96-well plates (Clinical and Laboratory Standards Institute (CLSI), 2011). Bacteria were inoculated at ˜10^5-10^6 CFU/mL and incubated at 35° C. for 20 h (normal strains) or 48 h (SCVs) in brain heart infusion (BHI) broth in order to allow SCVs to reach maximal growth as previously described (Mitchell et al., 2012). Then OD595 nm was read on a microplate reader. […] In this example the range of compound concentrations tested was 0.03 to 64 μg/ml using doubling increments. Strain Staphylococcus aureus NewbouldΔhemB (hemB) was also used in the experiments and is a laboratory-derived stable SCV created by the insertion of the macrolide resistance gene ermA in the hemB gene of this strain to create the SCV phenotype (defective electron transport chain and respiratory deficiency) through inactivation of hemin biosynthesis (Brouillette et al., 2004).
The various antibacterial activities of the test compounds against Staphylococcus aureus ATCC 29213, alone or in combination with gentamicin, and alone against the SCV strain hemB are reported in Table 1.

MRSA COL = test: MIC by microdilution, alone or in combination, MRSA COL; type: cell-based, Staphylococcus aureus; details: agent used alone
Experimental: as §1
(§2) In the present Example the range of compound concentrations tested, using doubling increments, was 0.03 to 64 μg/ml for Compound 14 and up to 1024 μg/ml for gentamicin (GEN), kanamycin (KAN) and cefalexin (CEF) when these compounds were used alone. Compound 14 (Cpd 14) was used at a fixed concentration of 4 μg/ml when added to other antibiotics. The combination of CEF and KAN was used in a 3:2 ratio and doubling increments were used to test the antibacterial activity against MRSA in the absence or presence of Compound 14.

MRSA USA300 = test: MIC by microdilution, alone or in combination, MRSA USA300; type: cell-based, Staphylococcus aureus; details: agent used alone
Experimental: as §1, §2

MRSA USA100 = test: MIC by microdilution, alone or in combination, MRSA USA100; type: cell-based, Staphylococcus aureus; details: agent used alone
Experimental: as §1, §2

[3] = system: Listeria monocytogenes (strain ATCC 13932); test: Time-kill experiments, Listeria monocytogenes; type: cell-based
Experimental: Time-kill experiments were performed in order to determine whether the effect of test compounds or the combination with an aminoglycoside on Listeria monocytogenes (strain ATCC 13932) is bacteriostatic (prevents growth) or bactericidal (kills cells).
At several time points during growth at 35° C. (225 RPM), bacteria were sampled, serially diluted and plated on Brain Hearth Infusion agar (BHIA) for colony-forming unit (CFU) determinations (i.e., viable bacterial counts). Plates were incubated for 24 h at 35° C. It represents the results of three independent experiments.

S. aureus hemB (SaR2) = test: MIC against tomatidine-resistant SCV mutant SaR2; type: cell-based, Staphylococcus aureus; details: tomatidine-resistant mutant SaR2
Experimental: (§3) At each passage, using a microdilution method in 96-well microplates, S. aureus hemB was inoculated at ˜10^5-10^6 CFU/ml and incubated at 35° C. for 48 h. The range of tomatidine concentrations tested was 0.03 to 64 μg/ml using doubling increments. The concentration of gentamicin was fixed at 4 μg/mL when it was used in combination with tomatidine. At each passage, the minimal inhibitory concentrations (MICs) (i.e. lowest concentration of an antimicrobial that inhibits the visible growth of bacteria), of tomatidine was determined. The bacteria used as inoculum for the next passage were from the well preceeding the well showing the MIC (i.e. the well containing half the MIC). At each passage, the population of bacteria serving as the inoculum for the next passage was spread on BHI agar plates and three isolated colonies were collected and frozen until used for whole-genome sequencing.

S. aureus hemB (SaR1) = test: MIC against tomatidine-resistant SCV mutant SaR1; type: cell-based, Staphylococcus aureus; details: tomatidine-resistant mutant SaR1
Experimental: as §3

[4] = Staphylococcus aureus, read-out: MIC vs SCV
[5] = MIC gentamicin alone / MIC gentamicin with compound at 8 μg/mL
[6] = compound tested alone, read-out: MIC vs ATCC29213
[7] = read-out: MIC of aminoglycoside against S. aureus ATCC 29213, aminoglycoside alone
[8] = Staphylococcus aureus, read-out: MIC
[9] = S. aureus hemB (SCV strain NewbouldΔhemB)

CCCCNC(C)[C@H]1CC[C@H]2[C@@H]3CC[C@H]4C[C@@H](O)CC[C@]4(C)[C@H]3CC[C@]12C.Cl (mixture of isomers) [Compound 48, 3β-Hydroxy-20-butylamino-5α-pregnane hydrochloride]
MIC [1, 4]: 4 to 8 µg/mL | Activity of the compounds against the SCV strain (class) [1]: Moderate (MIC = 0.5-4 μg/mL: moderate activity) | potentiaton fold with gentamicin [2, 5]: 8 x | potentiation / synergy with aminoglycoside (gentamicin) in words [2]: strong or moderate synergy | MIC [2, 6]: 64 µg/mL | potentiation activity with gentamicin in words ([2]; compound used at 8 μg/mL): High | Combination MIC vs ATCC29213 (MIC of gentamicin in combination with the compound) ([2]; compound used at 8 μg/mL): 0.06

CC(C)CCNC(C)[C@H]1CC[C@H]2[C@@H]3CC[C@H]4C[C@@H](O)CC[C@]4(C)[C@H]3CC[C@]12C.Cl (mixture of isomers) [Compound 50, 3β-Hydroxy-20-isopentylamino-5α-pregnane hydrochloride]
MIC [1, 4]: > 8 µg/mL | Activity of the compounds against the SCV strain (class) [1]: Low (MIC = ≥8 μg/mL: low activity) | potentiaton fold with gentamicin [2, 5]: 4 x | potentiation / synergy with aminoglycoside (gentamicin) in words [2]: strong or moderate synergy | MIC [2, 6]: > 64 µg/mL | potentiation activity with gentamicin in words ([2]; compound used at 8 μg/mL): Moderate | Combination MIC vs ATCC29213 (MIC of gentamicin in combination with the compound) ([2]; compound used at 8 μg/mL): 0.12

NCC[C@H](O)C(=O)N[C@@H]1C[C@H](N)[C@@H](O[C@H]2O[C@H](CN)[C@@H](O)[C@H](O)[C@H]2O)[C@H](O)[C@H]1O[C@H]1O[C@H](CO)[C@@H](O)[C@H](N)[C@H]1O [Amikacin, reference compound]
MIC of aminoglycoside against S. aureus ATCC 29213 in combination with Compound 14 [2]: 0.25 µg/mL | Potentiation fold with Compound 14 [2]: 16 fold | MIC [2, 7]: 4 µg/mL

C[C@H]1CC[C@]2(NC1)O[C@H]1C[C@H]3[C@@H]4CC[C@H]5CC(NCCCCN)CC[C@]5(C)[C@H]4CC[C@]3(C)[C@H]1[C@@H]2C.Cl.Cl.Cl (stereo partly drawn) [Compound 16, 3-(N-aminobutyl)-aminotomatidine hydrochloride]
Activity of the compounds against the SCV strain (class) [1]: Moderate (MIC = 0.5-4 μg/mL: moderate activity) | MIC vs SCV [1]: 0.5 µg/mL | potentiaton fold with gentamicin ([2]; MIC gentamicin alone / MIC gentamicin with compound at 4 μg/mL): 4-8 x | potentiation / synergy with aminoglycoside (gentamicin) in words [2]: retain the ability to potentiate | activity vs ATCC29213 in words ([2]; compound tested alone): Active | MIC vs ATCC29213 ([2]; compound tested alone): 16 µg/mL | potentiation activity with gentamicin in words ([2]; compound used at 4 μg/mL): Moderate-high | Combination MIC vs ATCC29213 (MIC of gentamicin in combination with the compound) ([2]; compound used at 4 μg/mL): 0.06-0.12

C[C@H]1CC[C@]2(NC1)O[C@H]1C[C@H]3[C@@H]4CC[C@H]5CC(NCCCCCCN)CC[C@]5(C)[C@H]4CC[C@]3(C)[C@H]1[C@@H]2C.Cl.Cl.Cl (stereo partly drawn) [Compound 18, 3-(N-aminohexyl)-aminotomatidine hydrochloride]
Activity of the compounds against the SCV strain (class) [1]: Moderate (MIC = 0.5-4 μg/mL: moderate activity) | MIC vs SCV [1]: 1 µg/mL | potentiaton fold with gentamicin [2, 5]: 2-4 x | potentiation activity with gentamicin in words ([2]; compound used at 8 μg/mL): Moderate | Combination MIC vs ATCC29213 (MIC of gentamicin in combination with the compound) ([2]; compound used at 8 μg/mL): 0.12-0.25

NC[C@H]1O[C@H](O[C@H]2[C@H](O)[C@@H](O[C@H]3O[C@H](CO)[C@@H](O)[C@H](N)[C@H]3O)[C@H](N)C[C@@H]2N)[C@H](O)[C@@H](O)[C@@H]1O [Kanamycin, kanamycin, reference compound]
MIC (MRSA COL; [8]): 4 µg/mL | MIC (MRSA USA300; [8]): > 1020 µg/mL | MIC of aminoglycoside against S. aureus ATCC 29213 in combination with Compound 14 [2]: 0.25 µg/mL | Potentiation fold with Compound 14 [2]: 16 fold | MIC [2, 7]: 4 µg/mL | MIC (MRSA USA100; [8]): 256 µg/mL

[H]/N=C(/N)N[C@H]1[C@H](O)[C@@H](O)[C@H](O[C@@H]2O[C@@H](C)[C@](O)(C=O)[C@H]2O[C@@H]2O[C@@H](CO)[C@H](O)[C@@H](O)[C@@H]2NC)[C@@H](N/C(N)=N\[H])[C@@H]1O [Streptomycin, reference compound]
MIC of aminoglycoside against S. aureus ATCC 29213 in combination with Compound 14 [2]: 1 µg/mL | Potentiation fold with Compound 14 [2]: 4-8 fold | MIC [2, 7]: 4 to 8 µg/mL

NC[C@H]1O[C@H](O[C@H]2[C@H](O)[C@@H](O[C@H]3O[C@H](CO)[C@@H](O)[C@H](N)[C@H]3O)[C@H](N)C[C@@H]2N)[C@H](N)C[C@@H]1O [Tobramycin, reference compound]
MIC of aminoglycoside against S. aureus ATCC 29213 in combination with Compound 14 [2]: 0.125 µg/mL | Potentiation fold with Compound 14 [2]: 8 fold | MIC [2, 7]: 1 µg/mL

Tomatidine hydrochloride [Compound 3, reference compound]
effect in time-kill in combination with gentamicin ([3]; 8 μg/ml with 2 μg/ml gentamicin): not seen | effect on growth in time-kill (CFU) ([3]; used alone at 8 μg/ml): does not affect the growth | MIC (S. aureus hemB (SaR2)): >32 µg/mL | MIC [1, 9]: 0.0625 µg/mL | Activity of the compounds against the SCV strain (class) [1]: High (MIC = 0.06-0.25 μg/mL: high activity) | MIC vs SCV [1]: 0.06 µg/mL | MIC vs ATCC29213 ([2]; compound tested alone): >64 µg/mL | MIC vs ATCC29213 ([2]; compound tested alone, listed as tomatidine hydrochloride salt): > 64 µg/mL | potentiation activity with gentamicin in words ([2]; compound used at 8 μg/mL): High | Combination MIC vs ATCC29213 (MIC of gentamicin in combination with the compound) ([2]; compound used at 8 μg/mL): 0.06 | MIC (S. aureus hemB (SaR1)): >32 µg/mL

gentamicin [reference compound]
MIC (MRSA COL): 0.25 µg/mL | MIC (S. aureus hemB (SaR2)): 16 µg/mL | MIC (MRSA USA300): 0.5 µg/mL | MIC [1, 9]: 4 to 8 µg/mL | MIC of aminoglycoside against S. aureus ATCC 29213, aminoglycoside alone ([2]; aminoglycoside alone): 0.5 µg/mL | MIC (S. aureus hemB (SaR1)): 4 to 8 µg/mL | MIC (MRSA USA100): 0.5 µg/mL
